Test results from article PMC11513893, “Discovery of Oral Degraders of the ROS1 Fusion Protein with Potent Activity against Secondary Resistance Mutations” (Journal of Medicinal Chemistry, 2024).

What was measured:
[1] = test system: ROS1; experiment: ROS1 degradation in Ba/F3 cells (WES immunoblotting); format: cell-based; details: for DC50: concentration needed to reduce ROS1 protein by 50%, Ba/F3 cells; for Dmax (%) (ROS1): maximal degradation of ROS1 in Ba/F3 cells
Protocol: Protein levels were analyzed using a WES instrument according to the WES User Guide from ProteinSimple in duplicate experiments. The samples were mixed with the fluorescent 5 master mix (ProteinSimple) and then heated at 95 °C for 5 min. Boiled samples, biotinylated protein ladder, antibody diluent, Streptavidin-HRP, primary antibodies, ProteinSimple horseradish peroxidase conjugated antirabbit or antimouse secondary antibodies, luminol-peroxide, and wash buffer were loaded into the WES plate (Wes 12–230 kDa Prefilled Plates with Split Buffer, ProteinSimple). The plates and capillary cartridges were loaded into the WES instrument, and protein separation, antibody incubation, and imaging were performed according to manufacturer’s instructions. Compass software (ProteinSimple) was used to acquire the data and to generate the virtual blot image reconstruction and chemiluminescence signal intensity electropherograms. […] Protein levels are expressed as the AUC of the peak chemiluminescence intensity. Antibodies against phospho-ROS1(Tyr2274/2334) (E8F5J), ROS1 (D4D6(R)) were obtained from Cell Signaling Technology.

[2] = test system: Ba/F3 CD74-ROS1 non mutant; experiment: Antiproliferation assay (Alamar Blue, 72 h); format: cell-based, mouse; details: Mus musculus, BaF3, 72 h, Ba/F3 cells, cell growth inhibition
Description: (§1) To assess targeted degradation of ROS1 fusion proteins, we first established a mouse pro-B cell line Ba/F3 as a model expressing the CD74-ROS1 oncogene or CD74-ROS1 with clinically observed secondary/tertiary mutations. The Ba/F3 cell line is dependent on interleukin-3 for survival and proliferation. Upon transduction of oncogenic ROS1, Ba/F3 cells become independent of interleukin-3 but dependent on the transduced driver gene.
(§2) Ba/F3 immortalized murine bone marrow–derived pro-B cells were obtained from Creative Biogene (Shirley, NY) and cultured in RPMI supplemented with 10% FBS and IL3 (0.5 ng/mL). Ba/F3 cells expressing ROS1 variants were maintained in RPMI supplemented with 10% FBS and puromycin (0.7 mg/mL). […] Each compound was dissolved in DMSO and serially diluted in RPMI for cell culture experiments.
(§3) To assess the 72 h effect of drug treatment on cell proliferation, 2000 to 3000 cells were plated in replicates of three in 96-well plates. The plates were placed in an incubator at 37 °C, 5% CO2 for 72 h. Following drug treatments, the cells were incubated with the Alamar Blue Assay reagent (BioRad), 5 μL each well for 4 h at 37 °C and 5% CO2. Luminescence was measured on a multiplate reader and analyzed. […] IC50 values were determined using a nonlinear regression model with a sigmoidal dose response in GraphPad. The data were collected based on triplicate experiments, and presented as mean ± SD.
(§4) The resulting virus was used to infect Ba/F3 cells. After retroviral infection, Ba/F3 cells were selected by incubation with puromycin (0.7 mg/mL) for 2 weeks. For Ba/F3 cells infected by the CD74–ROS1 variants, IL3 was withdrawn from the culture medium at least 2 weeks before the experiments.

[3] = test system: Ba/F3 ROS1-G2032R; experiment: Antiproliferation assay; format: cell-based, mouse; details: Mus musculus, BaF3; Ba/F3 cells, cell growth inhibition, 72 h
Description: as §1, §2, §3, §4

Row | DC50 [1] | IC50 [2] | IC50 [3] | SMILES | Dmax (%) (ROS1) [1]
1 | 622 nM | 569 ± 73 nM | > 5000 nM | C[C@@H](Oc1cc(-c2cnn(C3CCN(CC4CN(c5ccc6c(c5)C(=O)N(C5CCC(=O)NC5=O)C6=O)C4)CC3)c2)cnc1N)c1c(Cl)ccc(F)c1Cl (stereo partly drawn) [7f, 5-(3-((4-(4-(6-Amino-5-((R)-1-(2,6-dichloro-3-fluorophenyl)ethoxy)pyridin-3-yl)-1H-pyrazol-1-yl)piperidin-1-yl)methyl)azetidin-1-yl)-2-(2,6-dioxopiperidin-3-yl)isoindoline-1,3-dione] | 24%
2 | 21 nM | 15 ± 4 nM | > 5000 nM | C[C@@H](Oc1cc(-c2cnn(C3CCN(CC4CCN(c5ccc6c(c5)C(=O)N(C5CCC(=O)NC5=O)C6=O)CC4)CC3)c2)cnc1N)c1c(Cl)ccc(F)c1Cl (stereo partly drawn) [7g, 5-(4-((4-(4-(6-Amino-5-((R)-1-(2,6-dichloro-3-fluorophenyl)ethoxy)pyridin-3-yl)-1H-pyrazol-1-yl)piperidin-1-yl)methyl)piperidin-1-yl)-2-(2,6-dioxopiperidin-3-yl)isoindoline-1,3-dione] | 85%
3 | > 1000 nM | 842 ± 172 nM | > 5000 nM | C[C@@H](Oc1cc(-c2cnn(C3CCN(CCC4CCN(c5ccc6c(c5)C(=O)N(C5CCC(=O)NC5=O)C6=O)CC4)CC3)c2)cnc1N)c1c(Cl)ccc(F)c1Cl (stereo partly drawn) [7h, 5-(4-(2-(4-(4-(6-Amino-5-((R)-1-(2,6-dichloro-3-fluorophenyl)ethoxy)pyridin-3-yl)-1H-pyrazol-1-yl)piperidin-1-yl)ethyl)piperidin-1-yl)-2-(2,6-dioxopiperidin-3-yl)isoindoline-1,3-dione] | 11%
4 | 338 nM | 284 ± 51 nM | > 5000 nM | C[C@@H](Oc1cc(-c2cnn(C3CCN(CC4CCN(CC5CCN(c6ccc7c(c6)C(=O)N(C6CCC(=O)NC6=O)C7=O)CC5)CC4)CC3)c2)cnc1N)c1c(Cl)ccc(F)c1Cl (stereo partly drawn) [7i, 5-(4-((4-((4-(4-(6-Amino-5-((R)-1-(2,6-dichloro-3-fluorophenyl)ethoxy)pyridin-3-yl)-1H-pyrazol-1-yl)piperidin-1-yl)methyl)piperidin-1-yl)methyl)piperidin-1-yl)-2-(2,6-dioxopiperidin-3-yl)isoindoline-1,3-dione] | 32%
5 | 225 nM | 176 ± 31 nM | > 10000 nM | Cc1cc(Nc2ncc(Cl)c(Nc3ccccc3S(=O)(=O)C(C)C)n2)c(OC(C)C)cc1C1CCN(CCNc2cccc3c2C(=O)N(C2CCC(=O)NC2=O)C3=O)CC1 (centres unmarked) [8a, 4-((2-(4-(4-((5-Chloro-4-((2-(isopropylsulfonyl)phenyl)amino)pyrimidin-2-yl)amino)-5-isopropoxy-2-methylphenyl)piperidin-1-yl)ethyl)amino)-2-(2,6-dioxopiperidin-3-yl)isoindoline-1,3-dione] | 58%
6 | 140 nM | 122 ± 17 nM | > 10000 nM | Cc1cc(Nc2ncc(Cl)c(Nc3ccccc3S(=O)(=O)C(C)C)n2)c(OC(C)C)cc1C1CCN(CCCNc2cccc3c2C(=O)N(C2CCC(=O)NC2=O)C3=O)CC1 (centres unmarked) [8b, 4-((3-(4-(4-((5-Chloro-4-((2-(isopropylsulfonyl)phenyl)amino)pyrimidin-2-yl)amino)-5-isopropoxy-2-methylphenyl)piperidin-1-yl)propyl)amino)-2-(2,6-dioxopiperidin-3-yl)isoindoline-1,3-dione] | 71%
7 | 143 nM | 107 ± 16 nM | 1260 ± 93 nM | Cc1cc(Nc2ncc(Cl)c(Nc3ccccc3S(=O)(=O)C(C)C)n2)c(OC(C)C)cc1C1CCN(C2CCN(c3cccc4c3C(=O)N(C3CCC(=O)NC3=O)C4=O)CC2)CC1 (centres unmarked) [8c, 4-(4-(4-((5-Chloro-4-((2-(isopropylsulfonyl)phenyl)amino)pyrimidin-2-yl)amino)-5-isopropoxy-2-methylphenyl)-[1,4′-bipiperidin]-1′-yl)-2-(2,6-dioxopiperidin-3-yl)isoindoline-1,3-dione] | 82%
8 | 302 nM | 183 ± 41 nM | 2560 ± 242 nM | Cc1cc(Nc2ncc(Cl)c(Nc3ccccc3S(=O)(=O)C(C)C)n2)c(OC(C)C)cc1C1CCN(C2CCN(CCNc3cccc4c3C(=O)N(C3CCC(=O)NC3=O)C4=O)CC2)CC1 (centres unmarked) [8d, 4-((2-(4-(4-((5-Chloro-4-((2-(isopropylsulfonyl)phenyl)amino)pyrimidin-2-yl)amino)-5-isopropoxy-2-methylphenyl)-[1,4′-bipiperidin]-1′-yl)ethyl)amino)-2-(2,6-dioxopiperidin-3-yl)isoindoline-1,3-dione] | 66%
9 | 733 nM | 562 ± 61 nM | > 10000 nM | Cc1cc(Nc2ncc(Cl)c(Nc3ccccc3S(=O)(=O)C(C)C)n2)c(OC(C)C)cc1C1CCN(C2CCN(CCCNc3cccc4c3C(=O)N(C3CCC(=O)NC3=O)C4=O)CC2)CC1 (centres unmarked) [8e, 4-((3-(4-(4-((5-Chloro-4-((2-(isopropylsulfonyl)phenyl)amino)pyrimidin-2-yl)amino)-5-isopropoxy-2-methylphenyl)-[1,4′-bipiperidin]-1′-yl)propyl)amino)-2-(2,6-dioxopiperidin-3-yl)isoindoline-1,3-dione] | 28%
10 | 189 nM | 115 ± 22 nM | 3660 ± 299 nM | Cc1cc(Nc2ncc(Cl)c(Nc3ccccc3S(=O)(=O)C(C)C)n2)c(OC(C)C)cc1C1CCN(C2CCN(C3CN(c4cccc5c4C(=O)N(C4CCC(=O)NC4=O)C5=O)C3)CC2)CC1 (centres unmarked) [8f, 4-(3-(4-(4-((5-Chloro-4-((2-(isopropylsulfonyl)phenyl)amino)pyrimidin-2-yl)amino)-5-isopropoxy-2-methylphenyl)-[1,4′-bipiperidin]-1′-yl)azetidin-1-yl)-2-(2,6-dioxopiperidin-3-yl)isoindoline-1,3-dione] | 67%
11 | 155 nM | 191 ± 60 nM | 950 ± 67 nM | Cc1cc(Nc2ncc(Cl)c(Nc3ccccc3S(=O)(=O)C(C)C)n2)c(OC(C)C)cc1C1CCN(C2CCN(CC3CN(c4cccc5c4C(=O)N(C4CCC(=O)NC4=O)C5=O)C3)CC2)CC1 (centres unmarked) [8g, 4-(3-((4-(4-((5-Chloro-4-((2-(isopropylsulfonyl)phenyl)amino)pyrimidin-2-yl)amino)-5-isopropoxy-2-methylphenyl)-[1,4′-bipiperidin]-1′-yl)methyl)azetidin-1-yl)-2-(2,6-dioxopiperidin-3-yl)isoindoline-1,3-dione] | 77%
12 | 145 nM | 128 ± 39 nM | 6630 ± 1800 nM | Cc1cc(Nc2ncc(Cl)c(Nc3ccccc3S(=O)(=O)C(C)C)n2)c(OC(C)C)cc1C1CCN(CCNc2ccc3c(c2)C(=O)N(C2CCC(=O)NC2=O)C3=O)CC1 (centres unmarked) [8h, 5-((2-(4-(4-((5-Chloro-4-((2-(isopropylsulfonyl)phenyl)amino)pyrimidin-2-yl)amino)-5-isopropoxy-2-methylphenyl)piperidin-1-yl)ethyl)amino)-2-(2,6-dioxopiperidin-3-yl)isoindoline-1,3-dione] | 71%
13 | 88 nM | 93 ± 50 nM | 4710 ± 486 nM | Cc1cc(Nc2ncc(Cl)c(Nc3ccccc3S(=O)(=O)C(C)C)n2)c(OC(C)C)cc1C1CCN(CCCNc2ccc3c(c2)C(=O)N(C2CCC(=O)NC2=O)C3=O)CC1 (centres unmarked) [8i, 5-((3-(4-(4-((5-Chloro-4-((2-(isopropylsulfonyl)phenyl)amino)pyrimidin-2-yl)amino)-5-isopropoxy-2-methylphenyl)piperidin-1-yl)propyl)amino)-2-(2,6-dioxopiperidin-3-yl)isoindoline-1,3-dione] | 84%
14 | 41 nM | 39 ± 8 nM | 1530 ± 521 nM | Cc1cc(Nc2ncc(Cl)c(Nc3ccccc3S(=O)(=O)C(C)C)n2)c(OC(C)C)cc1C1CCN(C2CCN(c3ccc4c(c3)C(=O)N(C3CCC(=O)NC3=O)C4=O)CC2)CC1 (centres unmarked) [8j, 5-(4-(4-((5-Chloro-4-((2-(isopropylsulfonyl)phenyl)amino)pyrimidin-2-yl)amino)-5-isopropoxy-2-methylphenyl)-[1,4′-bipiperidin]-1′-yl)-2-(2,6-dioxopiperidin-3-yl)isoindoline-1,3-dione] | 88%
